How the values were obtained:
[1] = tested on: KB3-1 human epidermoid carcinoma tumor cells; assay: MTT cytotoxicity assay (Test B); assay type: cell-based; details: KB 3-1, 96 h, cells cultured 4 days
From the text: (§1) Test B. Evaluation of G-Quadruplex Stabilizers using the MTT Assay.
(§2) Cell lines are selected based upon one or more factors including data on their relative telomerase activity, varied organ sites, available comparative data, and their ability to form solid tumors in athymic nude mice. The advantage of an MTT assay is that the cytotoxic/cytostatic activities can be readily determined.

[2] = tested on: human lymphoblastoma cell line RPMI 8402; assay: MTT cytotoxicity assay (Test B); assay type: cell-based; details: RPMI 8402, 96 h, cells cultured 4 days
From the text: as §1, §2

[3] = tested on: Human Telomeric G-Quadruplex DNA d(T2AG3)4; assay: UV melting, thermal stabilization of G-quadruplex DNA (Test A); assay type: binding; details: pH 7.5, 50 mM K+; Tm of the drug-DNA complex minus that of the DNA alone; absorbance at 295 nm
From the text: (§3) Test A. Selective Stabilization of G-Quadruplex DNA Analyses can be performed to determine the ability of the compounds to selectively bind and thermally stabilize quadruplex relative to duplex DNA. Toward this end, the UV absorbances of the DNA molecules are monitored as a function of temperature in the absence and presence of compound. The melting of duplex DNA is generally associated with a hyperchromic shift at 260 nm, while the melting of quadruplex DNA is associated with a hypochromic shift at 295 nm. Thus, the temperature-dependent absorbances of duplex DNA are monitored at 260 nm, with the corresponding quadruplex absorbances being monitored at 295 nm. Salmon testes DNA can be used as a representative model of duplex DNA and d([…])4 can be used as a representative model of quadruplex DNA. All UV melting studies are conducted at physiological pH (7.4) in the presence of potassium ions at physiologically relevant concentrations. Representative compounds of formula I (compounds 6, 32, and 33) were evaluated for their abilities to selectively bind and stabilize G-quadruplex relative to duplex DNA. […] By contrast, none of the compounds exert any impact on the thermal stability of the DNA duplex (ΔTm=0° C. for all three compounds).

Salmon Testes Duplex DNA = assay: UV melting, thermal stabilization of duplex DNA (Test A); assay type: binding; details: pH 7.5, 50 mM K+; Tm of the drug-DNA complex minus that of the DNA alone; absorbance at 260 nm
From the text: as §3

[4] = tested on: MDA-MB-435 human tumor xenografts (human melanoma cells); assay: Human tumor xenograft athymic nude mouse model (Test C); assay type: in vivo, female NCR/NU NU mice; details: ip injection; athymic nude mice; tumor volume
Description: Test C. Evaluation of G-Quadruplex Stabilizers in the Human Tumor Xenograft Athymic Nude Mouse Model.
Compound 33 inhibited the growth of MDA-MD-435 human tumor xenografts (developed from human melanoma cells) in vivo by more than 50% when administered by ip injection. Bioassays were performed using female NCR/NU NU mice of approximately 9 weeks of age as obtained from Taconic Farms, Inc. (Germantown, N.Y., USA). Mice were housed 4 per cage in laminar flow HEPA filtered microisolator caging (Allentown Caging Equipment Co., Allentown, N.J., USA). Mice were fed Purina autoclavable breeder chow #5021 and given drinking water, purified by reverse-osmosis, ad libitum. Five days after arrival within the animal facility, the mice were inoculated on the right flank with 1.5×10^6 MDA-MB-435 tumor cells in 0.1 mL of RPMI 1640 Media by sc injection (25 gauge needle×⅝″). The MDA-MB-435 cells were grown in 75 cm^2 flasks using RPMI 1640 Media and 10% fetal bovine serum. Tumors were of sufficient size at 19-20 days after inoculation. Tumor-bearing mice were evenly matched in each experimental group based on tumor volume. Tumor volume was calculated by measuring the tumor with a microcaliper. The length (l) is the maximum two dimensional distance of the tumor and the width (w) is the maximum distance perpendicular to this length measured in mm. Tumor volume was calculated using the formula (l*w^2)/2.

telomerase = details: read-out: telomerase inhibitory activity IC50; cited from earlier work
LAN1 = details: human neuroblastoma cell line; read-out: cytotoxicity IC50 LAN1; cited from earlier work
MiaPaCa = details: human pancreatic carcinoma; read-out: cytotoxicity IC50 MiaPaCa; cited from earlier work
WAC2 = details: human neuroblastoma cell line; read-out: cytotoxicity IC50 WAC2; cited from earlier work
LAN5 = details: human neuroblastoma cell line; read-out: cytotoxicity IC50 LAN5; cited from earlier work
SK-N-AS = details: human neuroblastoma cell line; read-out: cytotoxicity IC50 SK-N-AS; cited from earlier work
[5] = tested on: HBC-4, BSY-1, HBC-5, MCF-7, and MDA-MB-231; details: range over HBC-4, BSY-1, HBC-5, MCF-7, MDA-MB-231; read-out: GI50 against human breast cancer cell lines; cited from earlier work

Compound	melting point	IC50 [1]	IC50 [2]	also measured
O=C1NCc2cccc(c2)CNC(=O)c2coc(n2)-c2coc(n2)-c2cccc(n2)-c2nc(co2)-c2nc1co2 [Compound 6]	320 to 324 °C (dec.)	1200 nM	1050 nM	Human Telomeric G-Quadruplex DNA ΔTm [3]: 20.5 °C; Salmon Testes Duplex DNA ΔTm (Salmon Testes Duplex DNA): 0 °C
O=C1NCc2cccc(n2)CNC(=O)c2coc(n2)-c2coc(n2)-c2cccc(n2)-c2nc(co2)-c2nc1co2 [Compound 7]	330 °C (dec.)	> 5000 nM	> 5000 nM	–
O=C1NCCNCCNC(=O)c2coc(n2)-c2coc(n2)-c2cccc(n2)-c2nc(co2)-c2nc1co2 [Compound 8]	276 °C (dec.)	4000 nM	> 10000 nM	–
O=C1NCc2cccc(c2)CNC(=O)c2coc(n2)-c2csc(n2)-c2cccc(n2)-c2nc(co2)-c2nc1co2 [Compound 14]	274 to 275 °C (dec.)	260 nM	1000 nM	–
O=C1NCc2cccc(c2)CNC(=O)c2coc(n2)-c2csc(n2)-c2cccc(n2)-c2nc(cs2)-c2nc1co2 [Compound 22]	245 °C	> 10000 nM	> 10000 nM	–
O=C1NCc2cccc(c2)CNC(=O)c2coc(n2)-c2coc(n2)-c2cc(Br)cc(n2)-c2nc(co2)-c2nc1co2 [Compound 28]	211 to 213 °C	150 nM	300 nM	–
O=C1NCc2cc(Br)cc(c2)CNC(=O)c2coc(n2)-c2coc(n2)-c2cccc(n2)-c2nc(co2)-c2nc1co2 [Compound 29]	248 to 250 °C	60 nM	300 nM	–
O=C(NCCc1cc2cc(c1)CNC(=O)c1coc(n1)-c1coc(n1)-c1cccc(n1)-c1nc(co1)-c1nc(co1)C(=O)NC2)OCc1ccccc1 [Compound 30]	196 to 198 °C	120 nM	120 nM	–
CC(=O)NCCCOc1cc2nc(c1)-c1nc(co1)-c1nc(co1)C(=O)NCc1cccc(c1)CNC(=O)c1coc(n1)-c1coc-2n1 [Compound 47]	–	10000 nM	> 10000 nM	–
CN(C)c1cc2cc(c1)CNC(=O)c1coc(n1)-c1coc(n1)-c1cccc(n1)-c1nc(co1)-c1nc(co1)C(=O)NC2 [Compound 48]	–	30 nM	60 nM	–
CC(C)(C)OC(=O)NCCc1cc2cc(c1)CNC(=O)c1coc(n1)-c1coc(n1)-c1cccc(c1)-c1nc(co1)-c1nc(co1)C(=O)NC2 [Compound 59]	–	3100 nM	3600 nM	–
CN(C)CCc1cc2cc(c1)CNC(=O)c1coc(n1)-c1coc(n1)-c1cccc(c1)-c1nc(co1)-c1nc(co1)C(=O)NC2 [Compound 61]	–	400 nM	2000 nM	–
CN(C)CCc1oc2nc1C(=O)NCc1cccc(c1)CNC(=O)c1nc(oc1CCN(C)C)-c1coc(n1)-c1cccc(n1)-c1nc-2co1 [Compound 78]	–	100 nM	200 nM	–
Cc1oc2nc1-c1nc(co1)-c1nc(co1)-c1nc(co1)-c1nc(co1)-c1nc(co1)C1=NC(CS1)c1nc-2c(C)o1 (stereo not shown) [Telomestatin]	–	–	–	IC50 (telomerase): 5 nM; IC50 (LAN1): 4000 nM; IC50 (MiaPaCa): 500 nM; IC50 (WAC2): 3200 nM; IC50 (LAN5): 2500 nM; IC50 (SK-N-AS): 800 nM
CC[C@H](C)[C@@H]1NC(=O)c2nc(oc2-c2ccccc2)-c2csc(n2)-c2coc(n2)-c2coc(n2)-c2coc(n2)CNC(=O)[C@@H](C(C)C)NC1=O [YM-216391]	–	–	–	GI50 [5]: 15 to 33 nM

Continued, in another order:

melting point	Compound	IC50 [1]	IC50 [2]	also measured
290 °C (dec.)	O=C1NCc2cc(CCNC(=O)C(F)(F)F)cc(c2)CNC(=O)c2coc(n2)-c2coc(n2)-c2cccc(n2)-c2nc(co2)-c2nc1co2 [Compound 31]	70 nM	170 nM	–
277 to 280 °C (dec.)	NCCc1cc2cc(c1)CNC(=O)c1coc(n1)-c1coc(n1)-c1cccc(n1)-c1nc(co1)-c1nc(co1)C(=O)NC2 [Compound 32]	30 nM	90 nM	–
295 °C (dec.)	CN(C)CCc1cc2cc(c1)CNC(=O)c1coc(n1)-c1coc(n1)-c1cccc(n1)-c1nc(co1)-c1nc(co1)C(=O)NC2 [Compound 33]	40 nM	180 nM	Human Telomeric G-Quadruplex DNA ΔTm [3]: 31.5 °C; inhibition of growth of human tumor xenografts in vivo [4]: more than 50%; Salmon Testes Duplex DNA ΔTm (Salmon Testes Duplex DNA): 0 °C
250 °C (dec.)	O=C1NCc2cc(Br)cc(c2)CNC(=O)c2coc(n2)-c2coc(n2)-c2cc(Br)cc(n2)-c2nc(co2)-c2nc1co2 [Compound 34]	> 10000 nM	> 10000 nM	–
204 to 205 °C	O=C(NCCc1cc2cc(c1)CNC(=O)c1coc(n1)-c1coc(n1)-c1cc(Br)cc(n1)-c1nc(co1)-c1nc(co1)C(=O)NC2)OCc1ccccc1 [Compound 35]	600 nM	1000 nM	–
305 to 307 °C (dec.)	O=C1NCc2cc(CCNC(=O)C(F)(F)F)cc(c2)CNC(=O)c2coc(n2)-c2coc(n2)-c2cc(Br)cc(n2)-c2nc(co2)-c2nc1co2 [Compound 36]	4000 nM	> 10000 nM	–
249 to 252 °C (dec.)	O=C1NCc2cccc(c2)CNC(=O)c2coc(n2)-c2coc(n2)-c2cc(OCCCN3C(=O)c4ccccc4C3=O)cc(n2)-c2nc(co2)-c2nc1co2 [Compound 43]	400 nM	4500 nM	–
289 to 290 °C (dec.)	O=C1NCc2cc(Br)cc(c2)CNC(=O)c2coc(n2)-c2coc(n2)-c2cc(OCCCN3C(=O)c4ccccc4C3=O)cc(n2)-c2nc(co2)-c2nc1co2 [Compound 44]	1000 nM	1000 nM	–
167 to 170 °C	O=C(NCCc1cc2cc(c1)CNC(=O)c1coc(n1)-c1coc(n1)-c1cc(OCCCN3C(=O)c4ccccc4C3=O)cc(n1)-c1nc(co1)-c1nc(co1)C(=O)NC2)OCc1ccccc1 [Compound 45]	> 10000 nM	> 10000 nM	–
237 to 239 °C (dec.)	NCCCOc1cc2nc(c1)-c1nc(co1)-c1nc(co1)C(=O)NCc1cccc(c1)CNC(=O)c1coc(n1)-c1coc-2n1 [Compound 46]	3000 nM	5000 nM	–
